Measured values reported in patent publication US9237747B2, “Herbicidal compositions comprising 4-amino-3-chloro-5-fluoro-6-(4-chloro-2-fluoro-3-methoxyphenyl) pyridine-2-carboxylic acid or a derivative thereof and insecticides” (priority 2013, dated 2016).
Where “and” joins values, the source holds several entries; their conditions need not be identical. Identical values can stand only once. Like-named read-outs stand apart in the source and are kept apart here.

Key:
[1] = tested on: LEFCH; assay: whole plant or invertebrate; assay type: in vivo, Leptochloa chinensis
Protocol: Seeds or nutlets of the desired test plant species were planted in a soil matrix prepared by mixing a loam or sandy loam soil (e.g., 28.6 percent silt, 18.8 percent clay, and 52.6 percent sand, with a pH of about 5.8 and an organic matter content of about 1.8 percent) and calcareous grit in an 80 to 20 ratio. The soil matrix was contained in plastic pots with a volume of 1 quart and a surface area of 83.6 square centimeters (cm^2). […] The plants were grown for 8-22 days in a greenhouse with an approximate 14 hour (h) photoperiod which was maintained at about 29° C. during the day and 26° C. during the night. Nutrients (Peters Excel® 15-5-15 5-Ca 2-Mg and iron chelate) were applied in the irrigation solution as needed and water was added on a regular basis. Supplemental lighting was provided with overhead metal halide 1000-Watt lamps as necessary. The plants were employed for testing when they reached the first through fourth true leaf stage.
Treatments consisted of the acid or esters of 4-amino-3-chloro-6-(4-chloro-2-fluoro-3-methoxyphenyl)-5-fluoropyridine-2-carboxylic acid (Compound A), each formulated as an SC (suspension concentrate), and various insecticidal components alone and in combination. Forms of compound A were applied on an acid equivalent basis.
For treatments comprised of formulated compounds, measured amounts of compounds were placed individually in 25 mL glass vials and diluted in a volume of 1.25% volume per volume (v/v) Agri-Dex® crop oil concentrate to obtain 12× stock solutions. […] Application solutions were prepared by adding an appropriate amount of each stock solution (e.g., 1 mL) and diluted to the appropriate final concentrations with the addition of […] of an aqueous mixture of 1.25% (v/v) crop oil concentrate so that the final spray solutions contained 1.25+/−0.05% (v/v) crop oil concentrate.
As required, additional water and/or 97:3 v/v acetone/DMSO was added to individual application solutions so that the final acetone and DMSO concentrations of the application solutions being compared were 8.1% and 0.25%, respectively.
All stock solutions and applications solutions were visually inspected for compound compatibility prior to application. Spray solutions were applied to the plant material with an overhead Mandel track sprayer equipped with 8002E nozzles calibrated to deliver 187 L/ha over an application area of 0.503 square meters (m^2) at a spray height of 18 to 20 inches (46 to 50 cm) above average plant canopy height. Control plants were sprayed in the same manner with the solvent blank.
(§1) The treated plants and control plants were placed in a greenhouse as described above and watered by sub-irrigation to prevent wash-off of the test compounds. After approximately 3 weeks, the condition of the test plants as compared to that of the untreated plants was determined visually and scored on a scale of 0 to 100 percent where 0 corresponds to no injury or growth inhibition and 100 corresponds to complete kill.
Colby's equation was used to determine the herbicidal effects expected from the mixtures (Colby, S. R. Calculation of the synergistic and antagonistic response of herbicide combinations. Weeds 1967, 15, 20-22.).
The following equation was used to calculate the expected activity of mixtures containing two active ingredients, A and B: Expected=A+B−(A×B/100)

[2] = tested on: SCPMA; assay: In-water applied weed control, transplanted paddy rice (greenhouse); assay type: in vivo, Schoenoplectus maritimus
Protocol: Weed seeds or nutlets of the desired test plant species were planted in puddled soil (mud) prepared by mixing a shredded, non-sterilized mineral soil (50.5 percent silt, 25.5 percent clay, and 24 percent sand, with a pH of about 7.6 and an organic matter content of about 2.9 percent) and water at a 1:1 volumetric ratio. The prepared mud was dispensed in 365 mL aliquots into 16-ounce (oz.) non-perforated plastic pots with a surface area of 86.59 square centimeters (cm^2) leaving a headspace of 3 centimeters (cm) in each pot. Rice seeds were planted in Sun Gro MetroMix® 306 planting mixture, which typically has a pH of 6.0 to 6.8 and an organic matter content of about 30 percent, in plastic plug trays. Seedlings at the second or third leaf stage of growth were transplanted into 860 mL of mud contained in 32-oz. non-perforated plastic pots with a surface area of 86.59 cm^2 4 days prior to herbicide application. The paddy was created by filling the headspace of the pots with 2.5 to 3 cm of water. When required to ensure good germination and healthy plants, a fungicide treatment and/or other chemical or physical treatment was applied. The plants were grown for 4-22 days in a greenhouse with an approximate 14 h photoperiod which was maintained at about 29° C. during the day and about 26° C. during the night. Nutrients were added as Osmocote® (17:6:10, N:P:K+minor nutrients) at 2 grams (g) per 16-oz. pot and 4 g per 32-oz. pot. Water was added on a regular basis to maintain the paddy flood, and supplemental lighting was provided with overhead metal halide 1000-Watt lamps as necessary. The plants were employed for testing when they reached the first through fourth true leaf stage.
Treatments consisted of the acid or esters of 4-amino-3-chloro-5-fluoro-6-(4-chloro-2-fluoro-3-methoxy-phenyl)pyridine-2-carboxylic acid (compound A) each formulated as an SC (suspension concentrate) and various herbicidal components alone and in combination. Forms of compound A were applied on an acid equivalent basis.
Other […] components were applied on an active ingredient basis and consisted of etofenprox (technical grade material) and sulfoxaflor formulated as Sulfoxaflor WG.
Treatment requirements for each compound or herbicidal component were calculated based upon the rates being tested, the concentration of active ingredient or acid equivalent in the formulation, an application volume of 2 mL per component per pot, and an application area of 86.59 cm^2 per pot.
For formulated compounds, a measured amount was placed in an individual 100 or 200 mL glass vial and was dissolved in a volume of 1.25% (v/v) AgriDex® crop oil concentrate to obtain application solutions.
For technical grade compounds, a weighed amount was placed in an individual 100 to 200 mL glass vial and was dissolved in a volume of acetone to obtain concentrated stock solutions.
Applications were made by injecting with a pipetter appropriate amounts of the application solutions, individually and sequentially, into the aqueous layer of the paddy. Control plants were treated in the same manner with the solvent blank. Applications were made so that all treated plant material received the same concentrations of acetone and crop oil concentrate.
as §1, with “and water was added as needed” for “and watered by sub-irrigation”, “to maintain a paddy flood.” for “to prevent wash-off of the test compounds.”, “3 weeks” for “3 weeks,”, “compared with” for “compared to”
Colby's equation was used to determine the herbicidal effects expected from the mixtures (Colby, S. R. Calculation of the synergistic and antagonistic response of herbicide combinations. Weeds 1967, 15, 20-22.). […]

## COc1c(Cl)ccc(-c2nc(C(=O)O)c(Cl)c(N)c2F)c1F [Compound A Acid, 4-amino-3-chloro-6-(4-chloro-2-fluoro-3-methoxyphenyl)-5-fluoropyridine-2-carboxylic acid]
[1]; 4.38 g ae/ha alone
  Visual Weed Control (%) - 20 DAA LEFCH Obs: 0%
[1]; 5.3 g ae/ha alone
  Visual Weed Control (%) - 20 DAA LEFCH Obs: 0%
[1]; 10.6 g ae/ha alone
  Visual Weed Control (%) - 20 DAA LEFCH Obs: 20%
[1]; 21 DAA, 8.75 g ae/ha alone
  Visual Weed Control (%) - 21 DAA LEFCH Obs: 30%
[1]; 21 DAA, 17.5 g ae/ha alone
  Visual Weed Control (%) - 21 DAA LEFCH Obs: 30%
[1]; 21.2 g ae/ha alone
  Visual Weed Control (%) - 20 DAA LEFCH Obs: 45%
[2]; 4.38 g ae/ha alone
  Visual Weed Control (%) - 21 DAA SCPMA Obs: 0%
[2]; 8.75 g ae/ha alone
  Visual Weed Control (%) - 21 DAA SCPMA Obs: 0%

## COc1c(Cl)ccc(-c2nc(C(=O)OCc3ccccc3)c(Cl)c(N)c2F)c1F [Compound A Benzyl Ester]
[1]; 4.38 g ae/ha alone
  Visual Weed Control (%) - 20 DAA LEFCH Obs: 15% and 20%
  Visual Weed Control (%) - 21 DAA LEFCH Obs: 10%
[1]; 8 g ae/ha alone
  Visual Weed Control (%) - 19 DAA LEFCH Obs: 45%
  Visual Weed Control (%) - 20 DAA LEFCH Obs: 15%
[1]; 8.75 g ae/ha alone
  Visual Weed Control (%) - 20 DAA LEFCH Obs: 30% and 35%
  Visual Weed Control (%) - 21 DAA LEFCH Obs: 25%
[1]; 16 g ae/ha alone
  Visual Weed Control (%) - 19 DAA LEFCH Obs: 45%
  Visual Weed Control (%) - 20 DAA LEFCH Obs: 25%
[1]; 17.5 g ae/ha alone
  Visual Weed Control (%) - 20 DAA LEFCH Obs: 50% and 60%
  Visual Weed Control (%) - 21 DAA LEFCH Obs: 30%
[1]; 19 DAA, 8 g ae/ha alone
  Visual Weed Control (%) - 19 DAA LEFCH Obs: 45%
[1]; 19 DAA, 16 g ae/ha alone
  Visual Weed Control (%) - 19 DAA LEFCH Obs: 45%
[1]; 19 DAA, 32 g ae/ha alone
  Visual Weed Control (%) - 19 DAA LEFCH Obs: 50%
[1]; 21 DAA, 8 g ae/ha alone
  Visual Weed Control (%) - 21 DAA LEFCH Obs: 15%
[1]; 21 DAA, 16 g ae/ha alone
  Visual Weed Control (%) - 21 DAA LEFCH Obs: 15%
[1]; 21 DAA, 17.5 g ae/ha alone
  Visual Weed Control (%) - 21 DAA LEFCH Obs: 50%
[1]; 21 DAA, 32 g ae/ha alone
  Visual Weed Control (%) - 21 DAA LEFCH Obs: 25%
[1]; 32 g ae/ha alone
  Visual Weed Control (%) - 19 DAA LEFCH Obs: 50%
  Visual Weed Control (%) - 20 DAA LEFCH Obs: 30%
[1]; Dinebra chinensis, post-emergence, 528 h, 4.38 g ae/ha alone, read-out: Visual Weed Control (%) - 22 DAA LEFCH Obs
  pest or weed control at 4.38 g/ha: 30%
[1]; Dinebra chinensis, post-emergence, 528 h, 8 g ae/ha alone, read-out: Visual Weed Control (%) - 22 DAA LEFCH Obs
  pest or weed control at 8 g/ha: 25%
[1]; Dinebra chinensis, post-emergence, 528 h, 16 g ae/ha alone, read-out: Visual Weed Control (%) - 22 DAA LEFCH Obs
  pest or weed control at 16 g/ha: 30%
[1]; Dinebra chinensis, post-emergence, 528 h, 22 DAA, 8 g ae/ha alone, second part of Table 18, read-out: Visual Weed Control (%) - 22 DAA LEFCH Obs
  pest or weed control at 8 g/ha: 18%
[1]; Dinebra chinensis, post-emergence, 528 h, 22 DAA, 16 g ae/ha alone, read-out: Visual Weed Control (%) - 22 DAA LEFCH Obs
  pest or weed control at 16 g/ha: 25%
[1]; Dinebra chinensis, post-emergence, 528 h, 22 DAA, 16 g ae/ha alone, second part of Table 18, read-out: Visual Weed Control (%) - 22 DAA LEFCH Obs
  pest or weed control at 16 g/ha: 43%
[1]; Dinebra chinensis, post-emergence, 528 h, 22 DAA, 32 g ae/ha alone, read-out: Visual Weed Control (%) - 22 DAA LEFCH Obs
  pest or weed control at 32 g/ha: 55%
[1]; Dinebra chinensis, post-emergence, 528 h, 22 DAA, 32 g ae/ha alone, second part of Table 18, read-out: Visual Weed Control (%) - 22 DAA LEFCH Obs
  pest or weed control at 32 g/ha: 53%
[1]; Dinebra chinensis, post-emergence, 528 h, 32 g ae/ha alone, read-out: Visual Weed Control (%) - 22 DAA LEFCH Obs
  pest or weed control at 32 g/ha: 60%
[2]; 21 DAA, 4.38 g ae/ha alone
  Visual Weed Control (%) - 21 DAA SCPMA Obs: 0%
[2]; 21 DAA, 8.75 g ae/ha alone
  Visual Weed Control (%) - 21 DAA SCPMA Obs: 0%
[2]; 21 DAA, 17.5 g ae/ha alone
  Visual Weed Control (%) - 21 DAA SCPMA Obs: 0%

## CC(c1ccc(C(F)(F)F)nc1)S(C)(=O)=NC#N (centres unmarked) [Sulfoxaflor, N-[methyloxido[1-[6-(trifluoromethyl)-3-pyridinyl]ethyl]-λ^4-sulfanylidene]cyanamide]
[1]; 21 DAA, 12.5 g ai/ha alone
  Visual Weed Control (%) - 21 DAA LEFCH Obs: 0%
[1]; 21 DAA, 25 g ai/ha alone
  Visual Weed Control (%) - 21 DAA LEFCH Obs: 0%
[1]; 21 DAA, 37.5 g ai/ha alone
  Visual Weed Control (%) - 21 DAA LEFCH Obs: 0%
[1]; 21 DAA, 50 g ai/ha alone
  Visual Weed Control (%) - 21 DAA LEFCH Obs: 0%
[1]; 21 DAA, 75 g ai/ha alone
  Visual Weed Control (%) - 21 DAA LEFCH Obs: 0%
[1]; 21 DAA, 150 g ai/ha alone
  Visual Weed Control (%) - 21 DAA LEFCH Obs: 0%
[2]; 21 DAA, 50 g ai/ha alone
  Visual Weed Control (%) - 21 DAA SCPMA Obs: 0%
[2]; 50 g ai/ha alone
  Visual Weed Control (%) - 21 DAA SCPMA Obs: 0%
